This note sets out measurements from patent publication US5066658A, “Substituted hydroxyureas” (Ortho Pharmaceutical Corporation, priority 1990, dated 1991).

The test system of experiment [1] is Arachidonate-Induced Ear Edema. The experiment is described as follows: Arachidonic Acid-Induced Ear Edema Assay. The format is in vivo. As to conditions: topical; 200 μg topically, mouse ear; read-out: Inhibition of Arachidonate-Induced Ear Edema, % Inh. (μg topically). As for the experimental part:
The topical anti-inflammatory activity of a compound was determined by its ability to inhibit an experimentally-induced inflammation in the mouse ear. Basically, four milligrams of arachidonic acid in acetone were applied to the dorsal surface of one ear with a microliter pipette. The mice were sacrificed at various times after application of arachidonic acid (one-half to six hours). A section of each ear was removed with a 7 mm round punch and weighed on an electronic or analytical balance. The difference in weight between treated and untreated ears was determined. Compounds to be evaluated for anti-inflammatory activity can be incorporated directly into the irritant mixture or at various times prior to or after application of arachidonic acid.
The degree of anti-inflammatory activity is shown in Table I, and is expressed in terms of the percent inhibition of ear weight increase.

For a further experiment, the target named is T1, 5-lipoxygenase (Rattus norvegicus, UniProt P12527).
T1 construct: The cell-free homogenate was prepared by sonication of the cells followed by centrifugation at 40,000 xg; endogenous in cells; host or cells: RBL-1 (rat basophilic leukemia) cells, 40,000 xg supernatant of the sonicate
T1 sequence (P12527 1-673): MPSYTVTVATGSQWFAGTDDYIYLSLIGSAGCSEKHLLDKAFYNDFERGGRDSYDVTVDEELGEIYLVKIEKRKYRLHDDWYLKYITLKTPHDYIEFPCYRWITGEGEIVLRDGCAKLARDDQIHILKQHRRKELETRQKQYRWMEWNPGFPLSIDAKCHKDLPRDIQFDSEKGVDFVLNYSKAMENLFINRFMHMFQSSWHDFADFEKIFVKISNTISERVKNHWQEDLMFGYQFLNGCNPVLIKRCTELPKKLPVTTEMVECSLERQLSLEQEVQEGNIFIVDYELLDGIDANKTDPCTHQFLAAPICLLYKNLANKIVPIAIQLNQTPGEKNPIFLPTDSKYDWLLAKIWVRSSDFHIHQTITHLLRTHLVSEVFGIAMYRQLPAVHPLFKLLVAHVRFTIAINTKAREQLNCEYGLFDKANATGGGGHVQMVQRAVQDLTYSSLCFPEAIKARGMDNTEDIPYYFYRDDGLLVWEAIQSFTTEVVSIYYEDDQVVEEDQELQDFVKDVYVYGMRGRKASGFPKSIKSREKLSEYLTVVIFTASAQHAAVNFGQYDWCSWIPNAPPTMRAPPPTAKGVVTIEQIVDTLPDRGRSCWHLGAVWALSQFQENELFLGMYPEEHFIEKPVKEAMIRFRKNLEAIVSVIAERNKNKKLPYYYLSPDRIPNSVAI
The experiment in a line: Inhibition of 5-lipoxygenase in cell-free homogenate of rat basophilic leukemia (RBL-1) cells. The format is biochemical. As to conditions: 3 μM; RBL-1 cell-free homogenate; read-out: Inhibition of 5-Lipoxygenase, % Inh. @ 3 μM. As for the experimental part:
The inhibition of 5-lipoxygenase was tested in a cell-free homogenate by the procedure of B. Jakschik et al., Biochem.Biophys.Res.Comm. 95, 103 (1980). Basically, rat basophilic leukemia cells (RBL-1 cells) were maintained in culture in a suitable medium, and were collected by centrifugation prior to assay. The cell-free homogenate was prepared by sonication of the cells followed by centrifugation at 40,000 xg. The CaCl2 dependent production of lipoxygenase products from ^14 C-arachidonic acid in the 40,000 xg supernatant was monitored in the presence of buffer (or other vehicle) or drug. Products were isolated by acidification and extraction, followed by thin layer chromatography. Radioactive areas corresponding to the authentic lipoxygenase products were quantitated by liquid scintillation counting. Data was reported as the IC50, the concentration causing 50% inhibition of the generation of lipoxygenase products. The results are shown it Table I as the percent inhibition at 3 μM or the amount of compound necessary to cause 50% inhibition.

For experiment [2], the system named is Arachidonate-Induced Bronchospasm (cyclooxygenase). The experiment in a line: Pulmonary Mechanics Assay: arachidonate-induced bronchospasm without indomethacin (indicative of cyclooxygenase inhibition). The format is in vivo, male Hartley guinea pigs. As to conditions: Cavia porcellus, guinea pig; for inhibition in vivo at 15 mg/kg: IV dosing, read-out: Inhibition of Arachidonate-Induced Bronchospasm (IV Dosing), % Inh. without Indomethacin. As for the experimental part:
(§1) The bronchodilating activity of the compounds was tested in a pulmonary mechanics assay. Basically, male Hartley guinea pigs (about 400-500 g) were anesthetized with urethane (2 g/kg, i.p.) and placed in a whole body Plethysmograph. Cannulations of a jugular vein and carotid artery were performed for compound administration and monitoring blood pressure, respectively. The trachea was cannulated for respiration at a constate volume via a miniature starling pump. A Validyne differential pressure transducer (±20 cm H2 O) sensed transpleural pressure via a 15 gauge needle inserted into the pleural cavity and a sidearm from the tracheal cannula. Tidal volume was sensed by another Validyne differential pressure transducer (±2 cm H2 O) from pressure changes inside the plethysmograph. An on-line Buxco pulmonary mechanics computer calculated air flow, dynamic lung compliance and lung resistance. The values were recorded on a print-out.
(§2) The guinea pigs were pretreated with succinyl choline (1.2 mg/kg, i.v.) to arrest spontaneous respiration. A control challenge of arachidonic acid (0.5-1.0 mg/kg, i.v.) was administered, and the animals were then dosed with the test compound by various routes. At least 10 minutes were allowed to expire between arachidonic acid challenges. A second challenge was given and compared to the control response. This comparison was indicative of cyclooxygenase inhibition. Indomethacin (10 mg/kg, i.v.) was administered immediately after the second challenge. A third challenge of a higher dose of arachidonic acid (5-10 mg/kg, i.v.) was given. This response was induced by SRS-A and compared to the responses elicited by a separate control group of animals. Activity was indicative of lipoxygenase inhibition. Propranolol (0.005 mg/kg. i.v.) may be given prior to the third challenge to enhance the response to SRS-A.
(§3) Bronchoconstriction induced by arachidonic acid with or without indomethacin was expressed as maximum percent change in dynamic lung compliance (Cdyn) and maximum percent increase in lung resistance (RL). Each guinea pig served as its own control for cyclooxygenase evaluation. The results are shown in Table I and are expressed as the percent inhibition of control.

Experiment [3] has as its system Arachidonate-Induced Bronchospasm (lipoxygenase). The experiment in a line: Pulmonary Mechanics Assay: arachidonate-induced bronchospasm with indomethacin (SRS-A response, indicative of lipoxygenase inhibition). Format: in vivo, male Hartley guinea pigs. As to conditions: Cavia porcellus, guinea pig; for inhibition in vivo at 15 mg/kg: IV dosing, read-out: Inhibition of Arachidonate-Induced Bronchospasm (IV Dosing), % Inh. with Indomethacin. The method, then:
as §1, §2, §3

The mark [4] stands for this setting: ID dosing, read-out: Inhibition of Arachidonate-Induced Bronchospasm (ID Dosing), % Inh. without Indomethacin.
[5] abbreviates: ID dosing, read-out: Inhibition of Arachidonate-Induced Bronchospasm (ID Dosing), % Inh. with Indomethacin.

The structures appear in SMILES notation.

Broadly, the inhibition is the change of the read-out against control, counted positive when it falls. Turning to `COc1cc2c(cc1OC)CCN(C(=O)N(C)O)CC2` [Example 62, 7,8-Dimethoxy-N-hydroxy-N-methyl-1,2,4,5-tetrahydro-3H-3-benzazepine-3-carboxamide], the inhibition in vivo at 0.2 mg in experiment [1] stood at 35%. In addition, at 5-lipoxygenase, the inhibition at 3 µM came to 0%.

Consider `C=CCOc1ccc(CCNC(=O)N(C)O)cc1OC` [Example 55], for which the inhibition in vivo at 50 mg/kg in experiment [2] (setting [4]) is -68%; in experiment [3] (setting [5]), 56%. Also, the figures for the inhibition in vivo at 15 mg/kg in experiment [2] and in experiment [3] were 56% and 83%, respectively. For the same compound, on 5-lipoxygenase, the inhibition at 3 µM came out at 42%.

On to `CN(O)C(=O)NCCc1ccc(Cl)c(Cl)c1` [Example 50, N-[2-(3,4-Dichlorophenyl)ethyl]-N'-hydroxy-N'-methylurea], for which the inhibition in vivo at 50 mg/kg in experiment [2] (setting [4]) and in experiment [3] (setting [5]) was < 20% throughout. For the same compound, the inhibition at 3 µM at 5-lipoxygenase is 59%.

`COc1cccc(CCNC(=O)N(C)O)c1OC` [Example 44, N-[2-(2,3-Dimethoxyphenyl)ethyl]-N'-hydroxy-N'-methylurea]: the inhibition in vivo at 50 mg/kg is < 20% in experiment [2] (setting [4]) and 58% in experiment [3] (setting [5]). For the same compound, the inhibition at 3 µM at 5-lipoxygenase is 33%.

As for `CN(O)C(=O)NCCCOc1ccc(-c2ccccc2)cc1` [Example 34, N-[3-([l,l'biphenyl]-4-yloxy)propyl]N'hydroxy N'methylurea], the inhibition in vivo at 50 mg/kg in experiment [2] (setting [4]) was -74%; in experiment [3] (setting [5]) it was 34%. Further, on 5-lipoxygenase, the inhibition at 3 µM was determined as 93%.

`COc1ccc(CCCNC(=O)N(C)O)cc1OC` [Example 65, N-[3-(3,4-Dimethoxyphenyl)propyl]-N'-hydroxy-N'-methylurea]: the inhibition in vivo at 50 mg/kg was 52% in experiment [2] (setting [4]) and 59% in experiment [3] (setting [5]). Also, the results for the inhibition in vivo at 15 mg/kg in experiment [2] and in experiment [3] were 86% and 89%, respectively. The inhibition at 3 µM at 5-lipoxygenase came to 19%.

Regarding `CN(O)C(=O)NCCCCCCCOc1ccc(-c2ccccc2)cc1` [Example 38], the inhibition in vivo at 50 mg/kg is -9% in experiment [2] (setting [4]) and < 20% in experiment [3] (setting [5]). Also, the inhibition at 3 µM at 5-lipoxygenase came out at 56%.

Consider `CN(O)C(=O)NCCc1ccc2c(c1)OCO2` [Example 43, N-[2-(3,4-Methylenedioxy)phenyl)ethyl-N'-hydroxy-N'-methylurea], for which the inhibition in vivo at 50 mg/kg in experiment [2] (setting [4]) and in experiment [3] (setting [5]) was < 20% in each case. Besides, the inhibition at 3 µM at 5-lipoxygenase amounted to 65%.

With `COc1cc(CCNC(=O)N(C)O)ccc1O` [Example 70, N-[2-(4-Hydroxy-3-methoxyphenyl)ethyl]-N'-hydroxy-N'-methylurea], the inhibition in vivo at 50 mg/kg in experiment [2] (setting [4]) and in experiment [3] (setting [5]) was < 20% each time. For the same compound, the inhibition at 3 µM on 5-lipoxygenase turned out to be 39%.

As to `CN(O)C(=O)NCCCCOc1ccc(-c2ccccc2)cc1` [Example 35, N-[4-([1,1'-Biphenyl]-4-yloxy)butyl]N'-hydroxy-N'-methylurea], the inhibition in vivo at 50 mg/kg in experiment [2] (setting [4]) was < 20%; in experiment [3] (setting [5]), 33%. In addition, the inhibition at 3 µM at 5-lipoxygenase was 79%.

Take `CN(O)C(=O)NCCCc1ccc(-c2ccccc2)cc1` [Example 32, N-[3-([1,1'-Biphenyl]-4-yl)propyl]-N'-hydroxy-N'-methylurea]: the inhibition in vivo at 50 mg/kg in experiment [2] (setting [4]) and in experiment [3] (setting [5]) was < 20% throughout. For the same compound, at 5-lipoxygenase, the inhibition at 3 µM was 71%.

In the case of `COc1ccc(CCNC(=O)NO)cc1OC` [Example 72, N-[2-(3,4-Dimethoxyphenyl)ethyl]-N'-hydroxyurea], the inhibition in vivo at 50 mg/kg in experiment [2] (setting [4]) amounted to 50%; in experiment [3] (setting [5]), 56%. For the same compound, the inhibition at 3 µM on 5-lipoxygenase was found to be 21%.

In the case of `COc1cc2c(cc1OC)CC(NC(=O)N(C)O)CC2` (centres unmarked) [Example 61, N-(6,7-Dimethoxy-1,2,3,4-tetrahydro-2-naphthyl)-N'-hydroxy-N'-methylurea], the inhibition in vivo at 15 mg/kg in experiment [2] and in experiment [3] was < 20% in each case. The inhibition at 3 µM on 5-lipoxygenase was found to be 73%.

As for `CN(O)C(=O)NCc1ccc(-c2ccccc2)cc1` [Example 30, N-([1,1'-Biphenyl]-4-ylmethyl)N'hydroxy-N'methylurea], the inhibition in vivo at 50 mg/kg in experiment [2] (setting [4]) and in experiment [3] (setting [5]) was < 20% each time. In addition, the inhibition at 3 µM on 5-lipoxygenase was 74%.

In the case of `CN(O)C(=O)NCCOc1ccc(-c2ccccc2)cc1` [Example 33, N-[2-([1,1'-biphenyl]-4-yloxy)ethyl]N'-hydroxy-N'-methylurea], the inhibition in vivo at 50 mg/kg in experiment [2] (setting [4]) was < 20%; in experiment [3] (setting [5]), 28%. At 5-lipoxygenase, the inhibition at 3 µM stood at 70%.

For the compound `COc1ccc(CCCN(CCCc2ccc(OC)c(OC)c2)C(=O)N(C)O)cc1OC` [Example 63, N,N-Bis-[3-(3,4-dimethoxyphenyl)propyl]-N'-hydroxy-N'-methylurea], the figures for the inhibition in vivo at 50 mg/kg in experiment [2] (setting [4]) and in experiment [3] (setting [5]) were < 20% and 21%, respectively. The inhibition at 3 µM at 5-lipoxygenase was found to be 76%.

`COc1ccc(CCN(C)C(=O)N(C)O)cc1OC` [Example 53, N-[2-(3,4-Dimethyoxyphenyl)ethyl]-N'-hydroxy-N,N'-dimethylurea]: the inhibition in vivo at 25 mg/kg in experiment [2] (ID dosing, 25 mg/kg, read-out: Inhibition of Arachidonate-Induced Bronchospasm (ID Dosing), % Inh. without Indomethacin) was 52%; in experiment [3] (ID dosing, 25 mg/kg, read-out: Inhibition of Arachidonate-Induced Bronchospasm (ID Dosing), % Inh. with Indomethacin) it was 71%. In addition, the inhibition in vivo at 15 mg/kg in experiment [2] was determined as 79%; in experiment [3], 51%. The inhibition at 3 µM on 5-lipoxygenase stood at 0%.

Take `COc1ccc(C2C3C=CC(C3)C2NC(=O)N(C)O)cc1OC` (stereo not drawn) [Example 58, N-[trans-3-(3,4-Dimethoxyphenyl)bicyclo[2.2.1]-5-hepten-2-yl]-N'-hydroxy-N'-methylurea]: the inhibition in vivo at 50 mg/kg in experiment [2] (setting [4]) turned out to be 35%; in experiment [3] (setting [5]), 68%. In addition, the inhibition at 3 µM on 5-lipoxygenase was 37%.
